Assay results: US12338270B2, “Pharmaceutical composition comprising polypeptide” (D&D Pharmatech Inc., priority 2018, dated 2025)
Non-standard residues stand in square brackets, D forms with d. No end group written: not given here. tri‑branched mPEG‑MAL 50 kDa = tri-branched maleimide-activated monomethoxy PEG, 50 kDa; Aib = CC(C)(N)C(=O)O

Tests used:
Format in all cases: in vivo
db/db mice [1] = experiment: ipGTT in db/db mice after 12-day administration; design: blood glucose in ipGTT: unit not given here; conditions: for blood glucose in ipGTT: db/db mice after 12 days of 20 nmol/kg s.c. once every other day
Description: (§1) Next, to perform an intraperitoneal glucose tolerance test (ipGTT), 2 g/kg of glucose was administered intraperitoneally after the 12-day administration of the drug, and a change in blood glucose with the elapse of time (0, 15, 30, 60, 90, and 120 minutes) was measured. To determine a degree of long-term change in average blood glucose level, a level of glycated hemoglobin (HbA1c) was also measured after the drug administration.

db/db mice [2] = experiment: blood glucose and body weight in db/db mice (Experimental Example 4)
Description: First of all, the conjugate of Example 2 was administered to 7-week-old db/db mice by subcutaneous injection at a dose of 20 nmol/kg once every other day for 12 days. For 12 days when the drug was administered, the changes in blood glucose and body weights were measured once every other day after the drug administration.

db/db mice [3] = experiment: glycated hemoglobin (HbA1c) in db/db mice after administration; conditions: db/db mice after administration of 20 nmol/kg s.c. once every other day; FIG. 3
Description: as §1

[4] = tested on: obesity animal model (C57BL/6 mice, 60% high-fat diet); experiment: ipGTT in obesity model, Examples 2 and 6 (Experimental Example 6); conditions: 2 g/kg glucose i.p. after 2 weeks of 20 nmol/kg s.c. once every other day; FIG. 6
Description: To check a preventing or therapeutic effect of the conjugates of Examples 2 and 6, which had different amino acid sequences, on obesity or diabetes, an animal model of obesity was prepared by feeding a 60% high-fat diet to normal C57BL/6 mice (approximately 6 weeks old) for approximately 24 weeks, and increasing the body weights of the mice to approximately 50 g in average. Thereafter, each of the conjugates of Examples 2 or 6 was administered by subcutaneous injection at a dose of 20 nmol/kg once every other day for 2 weeks. As the control, PBS was administered instead of the conjugates of Examples. For 2 weeks when the conjugates of Examples 2 or 6 were administered, changes in blood glucose with time were measured. Also, to perform an intraperitoneal glucose tolerance test (ipGTT), 2 g/kg of glucose was administered intraperitoneally after the 2-week administration of the drug, and changes in blood glucose with the elapse of time (0, 15, 30, 60, 90, and 120 minutes) were measured.

[5] = 20 nmol/kg s.c. once every other day for 12 days
[6] = day 0, 20 nmol/kg s.c. once every other day
[7] = day 2, 20 nmol/kg s.c. once every other day
[8] = day 4, 20 nmol/kg s.c. once every other day
[9] = day 6, 20 nmol/kg s.c. once every other day
[10] = day 8, 20 nmol/kg s.c. once every other day
[11] = day 10, 20 nmol/kg s.c. once every other day
[12] = day 12, 20 nmol/kg s.c. once every other day

Example 2: Conjugate of polypeptide H(Aib)QGTFTSDYSKYLDEQAAKEFVQWLMNTC (SEQ ID NO. 2) and tri-branched mPEG-MAL (MW: 50 kDa) (H[Aib]QGTFTSDYSKYLDEQAAKEFVQWLMNTC(tri‑branched mPEG‑MAL 50 kDa); lactam (positions not given here); not fully specified (bridges); printed as H(Aib)QGTFTSDYSKYLDEQAAKEFVQWLMNTC)
blood glucose in ipGTT (db/db mice [1]; 0 min after 2 g/kg glucose i.p.): 63 | blood glucose in ipGTT (db/db mice [1]; 15 min after 2 g/kg glucose i.p.): 190 | blood glucose in ipGTT (db/db mice [1]; 30 min after 2 g/kg glucose i.p.): 246 | blood glucose in ipGTT (db/db mice [1]; 60 min after 2 g/kg glucose i.p.): 341 | blood glucose in ipGTT (db/db mice [1]; 90 min after 2 g/kg glucose i.p.): 356 | blood glucose in ipGTT (db/db mice [1]; 120 min after 2 g/kg glucose i.p.): 396 | glucose tolerance in ipGTT (db/db mice [1]; db/db mice after 12-day administration): higher glucose tolerance than the non-treated group | body weight vs non-treated group (db/db mice [2]; [5]): body weight loss was observed | level of blood glucose vs non-treated group (db/db mice [2]; [5]): a level of blood glucose was lowered | Blood glucose (db/db mice [2]; [6]): 100% | Body weight (db/db mice [2]; [6]): 100% | Blood glucose (db/db mice [2]; [7]): 88% | Body weight (db/db mice [2]; [7]): 96% | Blood glucose (db/db mice [2]; [8]): 34% | Body weight (db/db mice [2]; [8]): 91% | Blood glucose (db/db mice [2]; [9]): 25% | Body weight (db/db mice [2]; [9]): 86% | Blood glucose (db/db mice [2]; [10]): 17% | Body weight (db/db mice [2]; [10]): 84% | Blood glucose (db/db mice [2]; [11]): 17% | Body weight (db/db mice [2]; [11]): 79% | Blood glucose (db/db mice [2]; [12]): 16% | Body weight (db/db mice [2]; [12]): 76% | level of glycated hemoglobin (HbA1c) (db/db mice [3]): significantly lower a level of glycated hemoglobin | increase in blood glucose in ipGTT vs control [4]: an increase in blood glucose was significantly reduced
